According to patent US7790753B2, “Derivatives of N-[phenyl(alkylpiperidine-2-yl)methyl]benzamide, preparation method thereof and application of same in therapeutics” (sanofi-aventis, priority 2003, dated 2010):
Where a name gives a salt, the structure may show the parent alone.

Columns and labels:
[1] = target: T1, transporter glyt2 (Mus musculus, UniProt Q761V0); assay: Glycine transportation ([14C]glycine uptake) in mouse spinal cord homogenate; format: biochemical; conditions: 10 μM [14C]glycine, 10 minutes at 25° C., read-out: IC50, concentration capable of reducing by 50% the specific uptake of glycine
T1 construct: from tissue; host or cells: spinal cord of male OF1 Iffa Credo mice
T1 sequence (Q761V0 1-799): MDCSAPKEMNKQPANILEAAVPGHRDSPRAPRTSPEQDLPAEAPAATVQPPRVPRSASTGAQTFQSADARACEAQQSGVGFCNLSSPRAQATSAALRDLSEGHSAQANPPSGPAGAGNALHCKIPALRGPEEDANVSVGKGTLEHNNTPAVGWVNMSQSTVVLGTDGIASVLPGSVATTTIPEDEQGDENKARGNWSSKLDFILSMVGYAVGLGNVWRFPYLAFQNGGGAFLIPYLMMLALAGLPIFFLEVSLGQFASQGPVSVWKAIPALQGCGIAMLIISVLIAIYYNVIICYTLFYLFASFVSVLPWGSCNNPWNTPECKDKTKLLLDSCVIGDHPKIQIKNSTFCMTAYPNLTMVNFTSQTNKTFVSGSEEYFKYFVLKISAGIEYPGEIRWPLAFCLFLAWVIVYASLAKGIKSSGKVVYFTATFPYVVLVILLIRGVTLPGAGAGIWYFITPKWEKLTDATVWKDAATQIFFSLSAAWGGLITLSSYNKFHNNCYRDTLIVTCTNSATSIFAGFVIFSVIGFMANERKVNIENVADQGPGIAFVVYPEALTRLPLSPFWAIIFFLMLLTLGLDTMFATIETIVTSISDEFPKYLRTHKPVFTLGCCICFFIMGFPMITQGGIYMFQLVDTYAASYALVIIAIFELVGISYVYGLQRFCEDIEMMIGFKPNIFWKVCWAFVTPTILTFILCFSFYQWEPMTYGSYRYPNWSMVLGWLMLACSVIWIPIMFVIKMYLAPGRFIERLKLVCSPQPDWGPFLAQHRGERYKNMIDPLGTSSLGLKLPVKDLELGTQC
Description: Study of the Glycine Transportation in Mouse Spinal Cord Homogenate
The uptake of [^14C]glycine by the transporter glyt2 is studied in mouse spinal cord homogenate by measuring the radioactivity incorporated in the presence or absence of test compound.
After euthanizing the animals (male OF1 Iffa Credo mice weighing 20 to 25 g on the day of the experiment), the spinal cord of each animal is rapidly removed, weighed and stored on ice. The samples are homogenized in pH 7.4 Krebs-HEPES buffer ([4-(2-hydroxyethyl)-1-piperazineethanesulfonic acid), in a proportion of 25 ml/g of tissue.
50 μl of homogenate are preincubated for 10 minutes at 25° C. in the presence of pH 7.4 Krebs-HEPES buffer and of test compound at various concentrations, or of 10 mM of glycine to determine the nonspecific uptake. [^14C]glycine (specific activity=112 mCi/mmol) is then added over 10 minutes at 25° C. to a final concentration of 10 μM. The reaction is quenched by vacuum filtration and the radioactivity is estimated by solid scintillation by counting on a Microbeta Tri-Lux™ counter. The efficacy of the compound is determined by means of the IC50, the concentration capable of reducing by 50% the specific uptake of glycine, defined by the difference in radioactivity incorporated by the control batch and the batch that received 10 mM of glycine.

[2] = target: T2, native human transporter glyt1 (Homo sapiens, UniProt P48067); assay: Glycine transportation ([14C]glycine uptake) in SK-N-MC cells expressing the native human transporter glyt1; format: cell-based; conditions: 10 μM [14C]glycine, 10 minutes at 37° C., read-out: IC50, concentration of compound that reduces by 50% the specific uptake of glycine
T2 construct: SK-N-MC cells (human neuroepithelial cells) expressing the native human transporter glyt1; endogenous in cells; host or cells: SK-N-MC cells (human neuroepithelial cells)
T2 sequence (P48067 1-706): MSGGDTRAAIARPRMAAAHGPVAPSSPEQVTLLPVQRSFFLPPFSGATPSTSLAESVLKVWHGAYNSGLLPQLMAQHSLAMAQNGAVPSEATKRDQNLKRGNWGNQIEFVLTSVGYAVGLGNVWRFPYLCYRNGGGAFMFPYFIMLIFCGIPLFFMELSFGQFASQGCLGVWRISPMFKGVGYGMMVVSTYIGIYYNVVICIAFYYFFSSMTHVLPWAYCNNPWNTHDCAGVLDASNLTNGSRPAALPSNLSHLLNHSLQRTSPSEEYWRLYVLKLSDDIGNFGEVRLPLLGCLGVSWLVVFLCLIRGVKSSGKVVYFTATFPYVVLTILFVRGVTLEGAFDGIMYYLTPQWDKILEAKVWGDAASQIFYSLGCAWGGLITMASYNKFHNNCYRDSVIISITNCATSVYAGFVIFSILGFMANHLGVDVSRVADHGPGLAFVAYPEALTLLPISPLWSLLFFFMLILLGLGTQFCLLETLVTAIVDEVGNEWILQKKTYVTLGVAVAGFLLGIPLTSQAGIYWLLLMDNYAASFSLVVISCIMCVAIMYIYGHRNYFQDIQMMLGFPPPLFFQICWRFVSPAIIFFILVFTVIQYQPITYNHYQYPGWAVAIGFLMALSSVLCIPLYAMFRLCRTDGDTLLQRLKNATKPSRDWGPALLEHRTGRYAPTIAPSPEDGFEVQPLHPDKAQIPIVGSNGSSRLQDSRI
Protocol: Study of Glycine Transportation in SK-N-MC Cells Expressing the Native Human Transporter glyt1
The uptake of [^14C]glycine is studied in SK-N-MC cells (human neuroepithelial cells) expressing the native human transporter glyt1 by measuring the radioactivity incorporated in the presence or absence of the test compound. The cells are cultured as a monolayer for 48 hours in plates pretreated with 0.02% fibronectin. On the day of the experiment, the culture medium is removed and the cells are washed with Krebs-HEPES buffer ([4-(2-hydroxyethyl)-1-piperazineethanesulfonic acid) at pH 7.4. After preincubation for 10 minutes at 37° C. in the presence either of buffer (control batch) or of test compound at various concentrations or of 10 mM glycine (determination of the nonspecific uptake), 10 μM of [^14C]glycine (specific activity 112 mCi/mmol) are then added.
Incubation is continued for 10 minutes at 37° C., and the reaction is quenched by washing twice with pH 7.4 Krebs-HEPES buffer. The radioactivity incorporated by the cells is then estimated after adding 100 μl of liquid scintillant and stirring for 1 hour. Counting is performed on a Microbeta Tri-Lux™ counter. The efficacy of the compound is determined by means of the IC50, which is the concentration of compound that reduces by 50% the specific uptake of glycine, defined by the difference in radioactivity incorporated by the control batch and the batch that received 10 mM of glycine.

IC50 [1] | IC50 [2] | SMILES
120 nM | 510 nM | CC1CCCC(C(NC(=O)c2cccc(C(F)(F)F)c2Cl)c2ccccc2)N1C (stereo not drawn) [Compound 1, Cis-threo-2-chloro-N-[(1,6-dimethyl-2-piperidyl)(phenyl)methyl]-3-(trifluoromethyl)benzamide hydrochloride 1:1]
– | 100 nM | CC1CCC(C(NC(=O)c2cccc(C(F)(F)F)c2Cl)c2ccc(F)cc2)N(C)C1 (stereo not drawn) [Compound 5, Trans-threo-2-chloro-N-[(1,5-dimethyl-2-piperidyl)(4-fluorophenyl)methyl]-3-(trifluoromethyl)benzamide hydrochloride 1:1]
70 nM | 90 nM | CC1CCN(C)C(C(NC(=O)c2cccc(C(F)(F)F)c2Cl)c2ccccc2)C1 (stereo not drawn) [Compound 9, Cis-threo-2-chloro-N-[(1,4-dimethyl-2-piperidyl)(phenyl)methyl]-3-(trifluoromethyl)benzamide hydrochloride 1:1]
– | 8 nM | CN1CCCCC1(C)C(NC(=O)c1cccc(C(F)(F)F)c1Cl)c1ccccc1 (stereo not drawn) [Compound 10, Threo-2-chloro-N-[(1,2-dimethyl-2-piperidyl)(phenyl)methyl]-3-(trifluoromethyl)benzamide hydrochloride 1:1]
